In ChEMBL document CHEMBL1201862, “PubChem BioAssay data set” (2004):
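48-hour exposure; five concentrations; linearly interpolated endpoints. GI50 marks 50% less growth.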 The source made the active and inactive calls. Cut-off read from the data, not from the text of the source: active = GI50 up to about 1.1 µM and inactive = higher.

What was measured:
Test in all cases: growth of human tumour cells (NCI), 48 h
SF-268 = test system: SF-268
PC-3 = test system: PC-3
SR = test system: SR
NCI-H522 = test system: NCI-H522
HOP-62 = test system: HOP-62
UO-31 = test system: UO-31
UACC-62 = test system: UACC-62
EKVX = test system: EKVX
HOP-92 = test system: HOP-92
A498 = test system: A498
ACHN = test system: ACHN
SK-MEL-5 = test system: SK-MEL-5
Hs-578T = test system: Hs-578T
RXF 393 = test system: RXF 393
KM12 = test system: KM12
OVCAR-3 = test system: OVCAR-3
T47D = test system: T47D
RPMI-8226 = test system: RPMI-8226
OVCAR-5 = test system: OVCAR-5

Measured: GI50

NCCN1C(=O)CN=C(c2ccc(Cl)cc2)c2cc(Cl)ccc21
inactive: SF-268 14.4 µM | PC-3 14.8 µM | SR 17.9 µM | NCI-H522 16.1 µM | HOP-62 17.3 µM | UO-31 13.9 µM | UACC-62 17.9 µM | EKVX 26.2 µM | HOP-92 9.84 µM | A498 19.1 µM | ACHN 18.7 µM | SK-MEL-5 16.9 µM | Hs-578T 16.1 µM | RXF 393 11.5 µM | KM12 17.2 µM | OVCAR-3 15.5 µM | T47D 21.8 µM | RPMI-8226 17.6 µM | OVCAR-5 15.7 µM

Cc1cn([C@@H]2C[C@@H]2CO)c(=O)[nH]c1=O
inactive: SF-268 > 100 µM | PC-3 > 100 µM | SR > 100 µM | NCI-H522 > 100 µM | HOP-62 > 100 µM | UO-31 > 100 µM | UACC-62 > 100 µM | EKVX > 100 µM | HOP-92 > 100 µM | A498 > 100 µM | ACHN > 100 µM | SK-MEL-5 > 100 µM | Hs-578T > 100 µM | RXF 393 > 100 µM | KM12 > 100 µM | T47D > 100 µM | RPMI-8226 > 100 µM | OVCAR-5 > 100 µM

COc1ccccc1N1C(=O)CSC1c1cc(OC)c(OC)c(OC)c1 (stereo not given)
inactive: SF-268 > 46.1 µM | PC-3 > 78.2 µM | SR 10.7 µM | NCI-H522 17.7 µM | HOP-62 > 100 µM | UO-31 > 76.7 µM | UACC-62 20.5 µM | EKVX > 100 µM | HOP-92 50.9 µM | A498 > 100 µM | ACHN > 100 µM | SK-MEL-5 25.5 µM | Hs-578T > 59.7 µM | RXF 393 > 52.1 µM | KM12 21.3 µM | OVCAR-3 > 46.3 µM | T47D 12.4 µM | RPMI-8226 16.6 µM | OVCAR-5 > 100 µM

COc1cc2c(SCCN(C)C)nc3ccccc3c2c2ccccc12
inactive: SF-268 2.04 µM | PC-3 2.22 µM | SR 1.7 µM | NCI-H522 1.68 µM | HOP-62 1.79 µM | UO-31 2.26 µM | UACC-62 1.63 µM | EKVX 1.67 µM | HOP-92 1.73 µM | A498 10.7 µM | ACHN 1.78 µM | SK-MEL-5 1.83 µM | Hs-578T 2.13 µM | RXF 393 1.93 µM | KM12 1.56 µM | OVCAR-3 2.34 µM | T47D 2.7 µM | RPMI-8226 1.76 µM | OVCAR-5 1.64 µM
